Results taken from patent US20040038369A1, “Airway-specific trypsin-like enzymes and method of using the same” (priority 2000, published 2004).

Legend:
[1] = test system: HB-EGF on surface of H292 cell membrane; assay: Surface antigen analysis (FACS) of HB-EGF on NCI-H292 cell membrane; assay type: cell-based, human
Method: (§1) NCI-H292 cells (purchased from ATCC) were cultured on a 10 cm dish in 10% FCS-containing RPMI-1640 until to reach a confluent state, subjected to the replacement of the culture medium by RPMI-1640 containing 0.1% of BSA, and further cultured for 24 hours. The cultured cells were washed with PBS, treated and floated in PBS containing 5 mM of EDTA at 37° C. for five minutes, and then suspended in 0.1%BSA-containing RPMI-1640 in a density of 1.0×10^7 cells/mL.
(§2) The above-described cell suspension and 0.1% BSA-containing RPMI-1640 containing HAST in a double concentration (600 mU/mL) were mixed with each other in equivalent amounts, respectively, and reacted with each other at 37° C. for 30 minutes (final cell concentration: 5.0×10^6 cells/mL, final HAST concentration: 300 mU/mL). The reaction solution was mixed with ice-cooled 1% FCS-containing PBS in a volume of 5 times that of the reaction solution to stop the reaction, and the treated solution was then supplied for a surface antigen analysis.
(§3) The cells subjected to the prescribed treatments were suspended in 1% FCS-containing PBS in a density of 1.0×10^7 cells/mL. 100 μL of the prepared cell suspension was mixed with a primary antigen (EGF back ground dyeing: 1 μg of normal mouse IgG1 (produced by R & D Corp.), EGF dyeing: 1 μg of an anti-EGF mouse monoclonal antibody (produced by R & D Corp.), HB-EGF back ground dyeing: free from the primary antigen, HB-EGF dyeing: 2 μg of an anti-HB-EGF goat polyclonal antibody (produced by R & D Corp.)) and reacted on ice for 30 minutes. The reaction product was once washed with 5 mL of 1% FCS-containing PBS, mixed with 2 μg of a secondary antigen (EGF back ground dyeing and EGF dyeing: FITC conjugated F(ab′)2 fragment to mouse IgG (produced by Dako Corp.), HB-EGF back ground dyeing and HB-EGF dyeing: Swine Anti-Goat Ig's Fluorescein Conjugate (produced by KPL Corp.)), and then reacted on ice for 30 minutes. The reaction solution was once washed with 5 mL of 1% FCS-containing PBS, and then mixed with Cell Fix (produced by Becton Dickinson Corp.) to immobilize the cells. The expression of the surface antigen was assayed with FACS Calibur (produced by Becton Dickinson Corp.) and analyzed with Cell Quest (produced by Becton Dickinson Corp.). Average fluorescence intensities were shown in the next table as the indicators of expression intensities.
(§4) HAST (600 mU/mL) was reacted with leupeptin (10 μM) or BB1101 (5 μM) in 0.1% BSA-containing RPMI-1640 on ice for 30 minutes, and the reaction solution was mixed with the equivalent amount of a cell suspension preliminarily treated with leupeptin (10 μM) or BB1101 (5 μM) at 37° C. for 30 minutes, and further treated at 37° C. for 30 minutes (final HAST concentration: 300 mU/mL, final leupeptin concentration: 10 μM, final BB1101 concentration: 5 μM, final cell concentration: 5.0×10^6 cells/mL). The reaction solution was mixed with ice-cooled 1% FCS-containing PBS in an amount of five times that of the reaction solution to stop the reaction, and then supplied for the surface antigen analysis.
(§5) The cells subjected to the prescribed treatments were suspended in 1% FCS-containing PBS in a density of 1.0×10^7 cells/mL. […]

[2] = test system: EGF on surface of H292 cell membrane; assay: Surface antigen analysis (FACS) of EGF on NCI-H292 cell membrane; assay type: cell-based, human
Method: as §1, §2, §3, §4, §5

## HAST: human airway-specific trypsin-like enzyme; propeptide moiety bound to trypsin-like protein moiety via a disulfide bond
[1]; HAST 300 mU/mL
  cleavage of proHB-EGF on the surfaces of the cell membranes: cleaved
[1]; HAST 300 mU/mL, 37° C., 30 minutes, Back ground 4.5, PBS 8.72
  HB-EGF expression intensity on the surfaces of the cell membranes (average fluorescence intensity): 6.94
[1]; inhibitor experiment, HAST 300 mU/mL alone, Back ground 5.58, PBS 8.61
  HB-EGF expression intensity on the surfaces of the cell membranes (average fluorescence intensity): 6.26
[2]; HAST 300 mU/mL
  cleavage of proEGF on the surfaces of the cell membranes: cleaved
[2]; HAST 300 mU/mL, 37° C., 30 minutes, Back ground 4.62, PBS 7.26
  EGF expression intensity on the surfaces of the cell membranes (average fluorescence intensity): 4.88
[2]; inhibitor experiment, HAST 300 mU/mL alone, Back ground 8.44, PBS 10.79
  EGF expression intensity on the surfaces of the cell membranes (average fluorescence intensity): 8.33
